Results taken from ChEMBL document CHEMBL5247617, “4-Arylthiosemicarbazide derivatives - Pharmacokinetics, toxicity and anti-Toxoplasma gondii activity in vivo” (Eur J Med Chem, 2022).
pIC50: −log10 of the molar value. Active and inactive are the calls of the source. The rule behind the calls is not given here.

Key:
[1] = Tmax in BALB/c mouse brain at 25 mg/kg, po measured upto 24 hrs by LC-MS/MS analysis; type: ADME, organism-based
[2] = test system: Toxoplasma gondii; assay: Antiparasitic activity against Toxoplasma gondii RH infected in BALB/c mouse assessed as prolongation of animal survival at 25 to 50 mg/kg, po administered for 5 days starting from 24 hrs post infection by Kaplan-Meier method; type: functional, organism-based; settings: dose 25-50 mg/kg, time 5.0 day
[3] = test system: Toxoplasma gondii; assay: Antiparasitic activity against Toxoplasma gondii RH infected in BALB/c mouse assessed as reduction of bradyzoite gene copies in heart at 25 mg/kg, po administered every 24 hrs for 5 days starting from 24 hrs post infection by real-time qPCR analysis; type: functional, organism-based; settings: time 5.0 day
[4] = test system: Toxoplasma gondii; assay: Antiparasitic activity against Toxoplasma gondii RH infected in BALB/c mouse assessed as reduction in number of bradyzoite gene copies in muscles at 25 mg/kg, po administered every 24 hrs for 5 days starting from 24 hrs post infection by real-time qPCR analysis; type: functional; settings: time 5 day
[5] = Cmax in BALB/c mouse serum at 50 mg/kg, po measured upto 60 mins by LC-MS/MS analysis; type: ADME, organism-based; design: time < 60 min, dose 50 mg/kg, route po; settings: in vivo, 1 h
[6] = AUC in BALB/c mouse brain at 25 mg/kg, po measured upto 24 hrs by LC-MS/MS analysis; type: ADME, organism-based; design: time < 24 hrs, dose 25 mg/kg, route po
[7] = Elimination half-life in BALB/c mouse brain at 25 mg/kg, po measured upto 24 hrs by LC-MS/MS analysis; type: ADME, organism-based; settings: read-out: beta t1/2 (converted)
[8] = Oral bioavailability in BALB/c mouse serum at 50 mg/kg measured upto 60 mins by LC-MS/MS analysis; type: ADME, organism-based
[9] = Tmax in BALB/c mouse serum at 50 mg/kg, po measured upto 60 mins by LC-MS/MS analysis; type: ADME, organism-based; settings: in vivo, 1 h
[10] = Toxicity in BALB/c mouse assessed as changes in creatinine level at 50 mg/kg, po administered for 5 days and measured on day 1 and day 14 by colorimetric assay; type: organism-based; settings: in vivo, 120 h, time 5 day
[11] = Toxicity in BALB/c mouse assessed as changes in size of hepatocyte nuclei at 50 mg/kg, po administered for 5 days and measured after 14 days by hematoxylin-eosin staining based microscopic analysis; type: organism-based; settings: hepatocytes, 120 h, time 5 day
[12] = test system: Toxoplasma gondii; assay: Antiparasitic activity against Toxoplasma gondii RH infected in BALB/c mouse assessed as decrease in number of bradyzoite gene copies in brain at 50 mg/kg, po administered every 24 hrs for 5 days starting from 24 hrs post infection by real-time qPCR analysis; type: functional, organism-based; settings: time 5.0 day
[13] = Toxicity in BALB/c mouse assessed as changes in liver weight at 50 mg/kg, po administered for 5 days and measured after 14 days; type: organism-based; settings: in vivo, 120 h, time 5 day
[14] = Toxicity in BALB/c mouse assessed as changes in serum AST level at 50 mg/kg, po administered for 5 days and measured on day 1 and day 14 by ELISA method; type: organism-based; settings: in vivo, 120 h, time 5 day
[15] = Oral bioavailability in BALB/c mouse brain at 50 mg/kg measured upto 24 hrs by LC-MS/MS analysis; type: ADME, organism-based
[16] = Toxicity in BALB/c mouse assessed as disseminated necrosis of hepatocytes at 50 mg/kg, po administered for 5 days and measured after 14 days by hematoxylin-eosin staining based microscopic analysis; type: organism-based; settings: in vivo, 120 h, time 5 day
[17] = Elimination half-life in BALB/c mouse brain at 50 mg/kg, po measured upto 24 hrs by LC-MS/MS analysis; type: ADME, organism-based; settings: read-out: beta t1/2 (converted)
[18] = Toxicity in BALB/c mouse assessed as changes in body weight at 1000 mg/kg, po administered once and observed for 10 days; type: organism-based; settings: in vivo, 240 h, time 10 day
[19] = Elimination half-life in BALB/c mouse serum at 50 mg/kg, po measured upto 60 mins by LC-MS/MS analysis; type: ADME, organism-based; settings: in vivo, 1 h
[20] = Toxicity in BALB/c mouse assessed as changes in body weight at 25 to 50 mg/kg, po administered for 5 days and measured on day 1 and day 14; type: organism-based; settings: in vivo, 120 h, dose 25-50 mg/kg, time 5 day
[21] = test system: Toxoplasma gondii; assay: Antiparasitic activity against Toxoplasma gondii RH infected in human Hs27 cells assessed as parasitic growth inhibition incubated for 24 hrs followed by [5,6-3H] uracil addition and measured after 72 hrs by liquid scintillation counter analysis; type: functional, organism-based
[22] = Toxicity in BALB/c mouse assessed as disseminated necrosis of hepatocytes at 50 mg/kg, po administered for 5 days and measured after 1 day by hematoxylin-eosin staining based microscopic analysis; type: organism-based; settings: in vivo, 120 h, time 5 day
[23] = Toxicity in BALB/c mouse assessed as changes in liver weight at 50 mg/kg, po administered for 5 days and measured after 1 day; type: organism-based; settings: in vivo, 120 h, time 5 day
[24] = Toxicity in BALB/c mouse assessed as microvesicular steatosis of hepatocytes at 50 mg/kg, po administered for 5 days and measured after 1 day by hematoxylin-eosin staining based microscopic analysis; type: organism-based; settings: in vivo, 120 h, time 5 day
[25] = Cmax in BALB/c mouse serum at 25 mg/kg, po measured upto 60 mins by LC-MS/MS analysis; type: ADME, organism-based; design: dose 25 mg/kg, time < 60 min, route po; settings: in vivo, 1 h
[26] = test system: Toxoplasma gondii; assay: Antiparasitic activity against Toxoplasma gondii RH infected in BALB/c mouse assessed as decrease in IFNgamma level in serum at 25 to 50 mg/kg, po administered for 5 days starting from 24 hrs post infection by ELISA method; type: functional, organism-based; settings: dose 25-50 mg/kg, time 5.0 day
[27] = test system: Toxoplasma gondii; assay: Antiparasitic activity against Toxoplasma gondii RH infected in BALB/c mouse assessed as reduction of daughter tachyzoites in blood at 25 to 50 mg/kg, po administered for 5 days starting from 24 hrs post infection by real-time qPCR analysis; type: functional, organism-based; settings: dose 25-50 mg/kg, time 5.0 day
[28] = Elimination half-life in BALB/c mouse serum at 25 mg/kg, po measured upto 60 mins by LC-MS/MS analysis; type: ADME, organism-based; settings: in vivo, 1 h
[29] = test system: HS27; assay: Cytotoxicity against human HS27 cells assessed as reduction in cell viability; type: toxicity, cell-based
[30] = Cmax in BALB/c mouse brain at 25 mg/kg, po measured upto 24 hrs by LC-MS/MS analysis; type: ADME, organism-based; design: time < 24 hrs, dose 25 mg/kg, route po; settings: in vivo
[31] = AUC in BALB/c mouse serum at 25 mg/kg, po measured upto 60 mins by LC-MS/MS analysis; type: ADME, organism-based; design: dose 25 mg/kg, time < 60 min, route po; settings: in vivo, 1 h
[32] = Toxicity in BALB/c mouse assessed as increase in serum ALT level at 50 mg/kg, po administered for 5 days and measured after 14 days by ELISA method; type: organism-based; settings: in vivo, 120 h, time 5 day
[33] = Oral bioavailability in BALB/c mouse brain at 25 mg/kg measured upto 24 hrs by LC-MS/MS analysis; type: ADME, organism-based
[34] = test system: L929; assay: Cytotoxicity against mouse L929 cells assessed as reduction in cell viability incubated for 24 hrs by MTT assay; type: toxicity, cell-based; settings: l929, 24 h
[35] = AUC in BALB/c mouse serum at 50 mg/kg, po measured upto 60 mins by LC-MS/MS analysis; type: ADME, organism-based; design: time < 60 min, dose 50 mg/kg, route po; settings: in vivo, 1 h
[36] = Tmax in BALB/c mouse brain at 50 mg/kg, po measured upto 24 hrs by LC-MS/MS analysis; type: ADME, organism-based
[37] = test system: Toxoplasma gondii; assay: Antiparasitic activity against Toxoplasma gondii RH infected in BALB/c mouse assessed as survival rate at 50 mg/kg, po administered every 12 hrs for 5 days starting from 24 hrs post infection by Kaplan-Meier method; type: functional; settings: 120 h, time 5 day
[38] = test system: Toxoplasma gondii; assay: Antiparasitic activity against Toxoplasma gondii DX infected in C3H/HeOuJ mouse assessed as prolongation of survival at 25 to 50 mg/kg, po administered for 5 days starting from 24 hrs post infection by Kaplan-Meier method; type: functional, organism-based; settings: dose 25-50 mg/kg, time 5.0 day
[39] = Cmax in BALB/c mouse brain at 50 mg/kg, po measured upto 24 hrs by LC-MS/MS analysis; type: ADME, organism-based; design: time < 24 hrs, dose 50 mg/kg, route po; settings: in vivo
[40] = Tmax in BALB/c mouse serum at 25 mg/kg, po measured upto 60 mins by LC-MS/MS analysis; type: ADME, organism-based; settings: in vivo, 1 h
[41] = Oral bioavailability in BALB/c mouse serum at 25 mg/kg measured upto 60 mins by LC-MS/MS analysis; type: ADME, organism-based
[42] = AUC in BALB/c mouse brain at 50 mg/kg, po measured upto 24 hrs by LC-MS/MS analysis; type: ADME, organism-based; design: dose 50 mg/kg, time < 24 hrs, route po
[43] = test system: Toxoplasma gondii; assay: Antiparasitic activity against Toxoplasma gondii RH infected in BALB/c mouse assessed as reduction of bradyzoite gene copies in heart at 50 mg/kg, po administered every 12 and 24 hrs for 5 days starting from 24 hrs post infection by real-time qPCR analysis; type: functional, organism-based; settings: time 5.0 day
[44] = Toxicity in BALB/c mouse assessed as changes in size of hepatocyte nuclei at 50 mg/kg, po administered for 5 days and measured after 1 day by hematoxylin-eosin staining based microscopic analysis; type: organism-based; settings: hepatocytes, 120 h, time 5 day

In the case of Cc1nc[nH]c1C(=O)NNC(=S)Nc1ccc([N+](=O)[O-])cc1, the Tmax [1] was 2 h, the Activity [2] was “Active” and the Activity [3] was “Active”. For the same molecule, the Activity [4] was 20, the Cmax [5] was 11.08 µg/mL and the AUC at 24 h [6] was 24.9 ng·h/mL. The half-life [7] was 175 min, the bioavailability [8] was 4.06% and the Tmax [9] was 15 min. The Activity [10] was “Non-Toxic”, the Activity [11] was “Toxic” and the Activity [12] was “Active”. The Activity [13] was “Non-Toxic”, the Activity [14] was “Non-Toxic” and the bioavailability [15] was 1.17%. The Activity [16] was “Toxic”, the half-life [17] was 54.6 min and the Activity [18] was “Non-Toxic”. The “beta t1/2” value [19] was 24 min, the Activity [20] was “Non-Toxic” and the pIC50 [21] was 4.17. For the same molecule, the Activity [22] was “Toxic”, the Activity [23] was “Non-Toxic” and the Activity [24] was “Toxic”. For the same molecule, the Cmax [25] was 6.4 µg/mL, the Activity [26] was “Active” and the Activity [27] was “Active”. For the same molecule, the “beta t1/2” value [28] was 52.8 min, the CC30 [29] was 697.67 µM and the Cmax [30] was 7.74 ng/mg. The AUC [31] was 53.7 µg·h/mL, the Activity [32] was “Non-Toxic” and the bioavailability [33] was 0.46%. For the same molecule, the CC30 [34] was 682.98 µM, the AUC [35] was 40.64 µg·h/mL and the Tmax [36] was 30 min. The survival at 50 mg/kg [37] was 20%, the Activity [38] was “Active” and the Cmax [39] was 32.27 ng/mg. The Tmax [40] was 30 min, the bioavailability [41] was 10.7% and the AUC at 24 h [42] was 47.5 ng·h/mL.

With Cc1nc[nH]c1C(=O)NNC(=S)Nc1cccc(I)c1 the Tmax [1] was 0.25 h, the Activity [2] was “Active” and the Activity [4] was 16. The Cmax [5] was 35.32 µg/mL, the AUC at 24 h [6] was 69.9 ng·h/mL and the half-life [7] was 29.4 min. The bioavailability [8] was 17%, the Tmax [9] was 15 min and the Activity [10] was “Non-Toxic”. For the same molecule, the Activity [11] was “Toxic”, the Activity [12] was “Active” and the Activity [13] was “Non-Toxic”. For the same molecule, the Activity [14] was “Non-Toxic”, the bioavailability [15] was 0.98% and the Activity [16] was “Toxic”. For the same molecule, the half-life [17] was 45.6 min, the Activity [18] was “Non-Toxic” and the Activity [43] was “Active”. The “beta t1/2” value [19] was 23.4 min, the Activity [20] was “Non-Toxic” and the pIC50 [21] was 4.59. For the same molecule, the Activity [22] was “Toxic”, the Activity [23] was “Non-Toxic” and the Cmax [25] was 30.85 µg/mL. The Activity [44] was “Toxic”, the Activity [26] was “Active” and the Activity [27] was “Active”. For the same molecule, the “beta t1/2” value [28] was 24.6 min, the CC30 [29] was 209.45 µM and the Cmax [30] was 94.16 ng/mg. The AUC [31] was 150.55 µg·h/mL, the Activity [32] was “Toxic” and the bioavailability [33] was 0.46%. It also gave a CC30 [34] of 213.27 µM, an AUC [35] of 170.39 µg·h/mL and a Tmax [36] of 30 min. For the same molecule, the survival at 50 mg/kg [37] was 20%, the Activity [38] was “Active” and the Cmax [39] was 174.33 ng/mg. It also gave a Tmax [40] of 15 min, a bioavailability [41] of 30.1% and an AUC at 24 h [42] of 167 ng·h/mL.
